The format of data set [1] is physicochemical. As to conditions: 1 μg/ml. The procedure:
0.5 ml of a 1 μg/ml aqueous solution of huperzine A was placed in glass tubes and heated in an oven for 30, 60 or 90 minutes. The samples were then reconstituted with double-distilled water and the amount of remaining huperzine A was determined by HPLC, as described hereinabove.

The nature of another data set: in vivo. As to conditions: rat, 0.5 mg/kg. How it is done:
All surgical and experimental procedures were reviewed and approved by the Animal Experimentation Ethics Committee of the Hebrew University Hadassah Medical School, Jerusalem. Male Wistar rats (Harlan, Israel), 290-350 grams in weight, were used for all surgical procedures.
Animals were anesthetized for the period of surgery by intra-peritoneal injection of 1 ml/kg of ketamine (9%)-xylazine (1%) solution. An indwelling cannula was placed in the right jugular vein of each animal for systemic blood sampling, as described in Jiang et al. [Curr Med Chem 2003, 10:2231-2252]. The cannula was tunneled beneath the skin and exteriorized at the dorsal part of the neck. After completion of the surgical procedure, the animals were transferred to metabolic cages to recover overnight (12-18 hours). During this recovery period and throughout the experiment, food, but not water, was deprived. Animals were randomly assigned to the different experimental groups.
In order to study the pharmacokinetic parameters of huperzine A, identical doses (0.5 mg/kg) of huperzine A dissolved in water were administered to 6 animals by oral gavage needle and to 6 animals by intravenous infusion through the jugular vein cannula followed by injection of 0.2 ml of heparinized saline (50 IU/ml) to ensure the delivery of the whole dose. Systemic blood samples (400 μl) were taken 5 minutes prior to dosing, and at various time periods post-dose, as indicated. To prevent dehydration, equal volumes of physiological solution were introduced to the rats following each withdrawal of a blood sample.
Another group (4 animals) received huperzine A as an intra-peritoneal injection. The doses, the vehicle and the volume used in the intra-peritoneal administration were similar to those used in the oral administration experiments.
Absorption of huperzine A from the colon was studied using an additional experimental group (7 animals). A cannula was placed to the cecum, tunneled beneath the skin and exteriorized at the dorsal part of the neck. Following overnight recovery, the animals were dosed through the colonic cannula and the pharmacokinetic experiment was conducted. The doses, the vehicle and the volume used in the colonic administration were similar to those used in the oral administration experiments. The drug was infused over the course of 90 minutes.
Absorption of huperzine A from the duodenum was studied using another experimental group (5 animals). A cannula was placed to the duodenum, tunneled beneath the skin and exteriorized at the dorsal part of the neck. Following overnight recovery, the animals were dosed through the duodenal cannula and the pharmacokinetic experiment was conducted. […]
Huperzine A concentrations in plasma samples were determined by an HPLC assay. The area under plasma concentrations versus time curves (AUC) for huperzine A in individual rats were analyzed using WinNonlin® Professional software version 5.0.1, according to the non-compartmental analysis model, as were other pharmacokinetic parameters (elimination constant (10; elimination half-life (T1/2); peak concentration (Cmax); and time to reach peak concentration (Tmax)). The absolute bioavailability (F) of huperzine A was calculated from the ratio of the AUCs normalized by dose after oral and intravenous administration.
All tested compounds were analyzed using a Waters 2695 Separation Module HPLC system with a Waters 2475 Fluorescence Detector and a Waters 2996 Photodiode Array Detector (Waters Corporation). […]

The test system of another data set is Caco-2 cells. The data set is classed as in vitro ADME. How it is done:
Caco-2 cells were obtained from ATCC (Manassas, Va., USA) and grown in 75 cm^2 flasks with approximately 0.5-1×10^6 cells per flask, at a temperature of 37° C. in a 5% CO2 atmosphere with a relative humidity of 95%. The culture growth medium consisted of Dulbecco's Modified Eagle Medium (DMEM) supplemented with 10% heat-inactivated fetal bovine serum (FBS), 1% nonessential amino acids, and 2 mM L-glutamine. The medium was replaced twice weekly. All medium supplements were obtained from Biological Industries (Beth-Haemek, Israel).
Cells in a passage range of 52-60 were seeded at a density of […] on untreated culture inserts of a polycarbonate membrane with 0.4 μm pores and a surface area of 1.1 cm^2. The culture inserts containing Caco-2 monolayers were placed in Costar® 24-Transwell plates (12 mm wells). The culture medium was changed every other day. […]
The permeability coefficient (Papp) for each compound was calculated from the linear plot of drug accumulated versus time, using the following equation: […]
Intestinal permeability towards huperzine A was evaluated using an in vitro model with Caco-2 epithelial colorectal cell culture, and using an ex-vivo animal intestine model (Ussing chamber model), as described in the Materials and Methods section. […]

Data set [2] deals with intestinal tissue (duodenum, jejunum, colon). The class given is in vitro ADME, rat.
The conditions of data set [3]: in vivo, po, cited from earlier work.

Read-outs that look alike come from different tables or passages of the source.

Broadly, the bioavailability is the share of a dose that reaches the circulation, judged against a reference dose that is usually intravenous. In general, half-life refers to the time in which the quantity being followed falls by half. A higher half-life goes with slow loss. On to `C/C=C1\[C@H]2C=C(C)C[C@]1(N)c1ccc(=O)[nH]c1C2` [huperzine A], for which the “temperature at which degradation of huperzine A was observed” value in data set [1] is no less than 150 °C. In the data set “in vivo” (male, Wistar), the bioavailability was roughly 50% and the half-life was roughly 1.67 h. Further, in “in vivo” (po), the “bioavailability following colonic infusion” value was “significantly lower than the bioavailability following oral bolus”, the “bioavailability following duodenal infusion” value is “at least as high as the bioavailability following oral bolus” and the “time of maximal plasma levels (Cmax)” value lay within 25 to 30 min. For the same molecule, the “permeability coefficient (Papp)” value in the data set with Caco-2 cells is “lower than that of antipyrine, and higher than that of mannitol”. In data set [2], the “permeability towards huperzine A in the colon” value was “lower than in the jejunum and duodenum, but was still significant”. In data set [3] (human), the bioavailability is on record as 99% and the half-lives is 6 to 12 h. Besides, in data set [3], the “time to peak serum concentration” value is given as “approximately 1 hour”.

Values taken from patent publication US20130040982A1, “ORAL SUSTAINED RELEASE FORMULATION OF HUPERZINE A” (Yissum Research Development Company of the Hebrew …, priority 2010, published 2013).
